Values of other authors in US9598354B2, “Fumarate compounds, pharmaceutical compositions thereof, and methods of use” (priority 2015, dated 2017).

aqueous solubility: poor
SMILES: COC(=O)/C=C/C(=O)OC [DMF, dimethylfumarate]
